Patent publication US7919493B2, “Anititumoral ecteinascidin derivatives” (Pharma Mar, S.A., priority 2001, dated 2011)
Converted amounts (≈) assume the structure as drawn.

Experiments:
Format in all cases: cell-based
[1] = test system: MEL-28 (monolayer culture of a human melanoma); assay: Cytotoxic activity screening, MEL-28 cells; conditions: three days of incubation, Crystal Violet; for IC50: Homo sapiens, SK-MEL-28, 72 h
Protocol: (§1) Cell Cultures. Cells were maintained in logarithmic phase of growth in Eagle's Minimum Essential Medium, with Earle's Balanced Salts, with 2.0 mM L-glutamine, with non-essential amino acids, without sodium bicarbonate (EMEM/neaa); supplemented with 10% Fetal Calf Serum (FCS), 10^−2 M sodium bicarbonate and 0.1 g/l penicillin-G+streptomycin sulfate.
(§2) A simple screening procedure has been carried out to determine and compare the antitumour activity of these compounds, using an adapted form of the method described by Bergeron et al (1984). The tumour cell line employed have been P-388 (suspension culture of a lymphoid neoplasm from DBA/2 mouse), A-549 (monolayer culture of a human lung carcinoma), HT-29 (monolayer culture of a human colon carcinoma) and MEL-28 (monolayer culture of a human melanoma).
(§3) A-549, HT-29 and MEL-28 were seeded into 16 mm wells at 2×10^4 cells per well in 1 ml aliquots of MEM 10FCS containing the indicated concentration of drug. A separate set of cultures without drug was seeded as control growth to ensure that cells remained in exponential phase of growth. All determinations were carried out in duplicate. After three days of incubation at 37° C., 10% CO2 in a 98% humid atmosphere, the wells were stained with 0.1% Crystal Violet. An approximately IC50 was determined by comparing the growth in wells with drug to the growth in wells control.

[2] = test system: A-549 (monolayer culture of a human lung carcinoma); assay: Cytotoxic activity screening, A-549 cells; conditions: three days of incubation, Crystal Violet; for IC50: Homo sapiens, A549, 72 h
Protocol: as §1
as §3, with “A” for “A-549, HT-29 and MEL-28 were seeded into 16 mm wells at 2×10^4 cells per well in 1 ml aliquots of MEM 10FCS containing the indicated concentration of drug. A”

[3] = test system: HT-29 (monolayer culture of a human colon carcinoma); assay: Cytotoxic activity screening, HT-29 cells; conditions: three days of incubation, Crystal Violet; for IC50: Homo sapiens, HT-29, 72 h
Protocol: as §1
as §3, with “A” for “A-549, HT-29 and MEL-28 were seeded into 16 mm wells at 2×10^4 cells per well in 1 ml aliquots of MEM 10FCS containing the indicated concentration of drug. A”

[4] = test system: P-388 (suspension culture of a lymphoid neoplasm from DBA/2 mouse); assay: Cytotoxic activity screening, P-388 cells; conditions: three days of incubation, approximate IC50 vs control growth; for IC50: Mus musculus, P388, 72 h
Protocol: as §1, §2
P-388 cell were seeded into 16 mm wells at 1×10^4 cells per well in 1 ml aliquots of MEM 5FCS containing the indicated concentration of drug. A separate set of cultures without drug was seeded as control growth to ensure that cells remained in exponential phase of growth. All determinations were carried out in duplicate.

DU-145 = assay: Cytotoxic activity screening, DU-145 cells; conditions: for IC50: Homo sapiens, DU-145, DU-145 cells; for IC50 DU-145: DU-145 cells
Protocol: [The source words this procedure for another cell line and reports this cell line under the same test.] as §1, §2
Examples of biological activities of the compounds described in the present application are in Table IV (IC50 (ng/mL)) on the following pages.

[5] = approximate IC50, listed as 18a*

Compound: COc1c(C)cc2c(c1O)[C@@H]1C3[C@@H]4SC[C@H](NC(=O)C(C)N)C(=O)OC[C@@H](c5c6c(c(C)c(OC(C)=O)c54)OCO6)N3[C@@H](O)[C@H](C2)N1C (stereo partly drawn) [Compound 4v]
- IC50 ([1]; approximate IC50): 1 ng/mL (≈ 1.46 nM)
- IC50 ([2]; approximate IC50): 1 ng/mL (≈ 1.46 nM)
- IC50 ([3]; approximate IC50): 1 ng/mL (≈ 1.46 nM)
- IC50 [4]: 1 ng/mL (≈ 1.46 nM)
- IC50 (DU-145): 1 ng/mL (≈ 1.46 nM)

Compound: COc1c(C)cc2c(c1O)[C@@H]1C3[C@@H]4SC[C@H](NC(=O)C(C)NC(=O)/C=C/c5ccccc5)C(=O)OC[C@@H](c5c6c(c(C)c(OC(C)=O)c54)OCO6)N3[C@@H](O)[C@H](C2)N1C (stereo partly drawn) [Compound 4x]
- IC50 ([1]; approximate IC50): 1 ng/mL (≈ 1.23 nM)
- IC50 ([2]; approximate IC50): 1 ng/mL (≈ 1.23 nM)
- IC50 ([3]; approximate IC50): 1 ng/mL (≈ 1.23 nM)
- IC50 [4]: 1 ng/mL (≈ 1.23 nM)
- IC50 (DU-145): 1 ng/mL (≈ 1.23 nM)

Compound: COC(=O)c1ccccc1C(=O)N[C@H]1CS[C@@H]2c3c(OC(C)=O)c(C)c4c(c3[C@H](COC1=O)N1C2[C@H]2c3c(cc(C)c(OC)c3O)C[C@@H]([C@@H]1C#N)N2C)OCO4 (stereo partly drawn) [Compound 6]
- IC50 ([1]; approximate IC50): 1 ng/mL (≈ 1.27 nM)
- IC50 ([2]; approximate IC50): 1 ng/mL (≈ 1.27 nM)
- IC50 ([3]; approximate IC50): 1 ng/mL (≈ 1.27 nM)
- IC50 [4]: 1 ng/mL (≈ 1.27 nM)
- IC50 (DU-145): 1 ng/mL (≈ 1.27 nM)

Compound: COc1c(C)cc2c(c1O)[C@@H]1C3[C@@H]4SC[C@H](O)C(=O)OC[C@@H](c5c6c(c(C)c(OC(C)=O)c54)OCO6)N3[C@@H](C#N)[C@H](C2)N1C (stereo partly drawn) [Compound 15]
- IC50 ([1]; approximate IC50): 5 ng/mL (≈ 8.02 nM)
- IC50 ([2]; approximate IC50): 5 ng/mL (≈ 8.02 nM)
- IC50 ([3]; approximate IC50): 5 ng/mL (≈ 8.02 nM)
- IC50 [4]: 5 ng/mL (≈ 8.02 nM)
- IC50 (DU-145): 5 ng/mL (≈ 8.02 nM)

Compound: COc1c(C)cc2c(c1O)[C@@H]1C3[C@@H]4SC[C@@H](OC(C)=O)C(=O)OC[C@@H](c5c6c(c(C)c(OC(C)=O)c54)OCO6)N3[C@@H](C#N)[C@H](C2)N1C (stereo partly drawn) [Compound 17a]
- IC50 MEL-28 ([1]; approximate IC50): 0.1 ng/mL (≈ 0.15 nM)
- IC50 A-549 ([2]; approximate IC50): 0.1 ng/mL (≈ 0.15 nM)
- IC50 HT-29 ([3]; approximate IC50): 0.1 ng/mL (≈ 0.15 nM)
- IC50 P-388 [4]: 0.1 ng/mL (≈ 0.15 nM)
- IC50 DU-145 (DU-145): 0.1 ng/mL (≈ 0.15 nM)

Compound: COc1c(C)cc2c(c1O)[C@@H]1C3[C@@H]4SC[C@H](OC(=O)C(F)(F)F)C(=O)OC[C@@H](c5c6c(c(C)c(OC(C)=O)c54)OCO6)N3[C@@H](C#N)[C@H](C2)N1C (stereo partly drawn) [Compound 17b]
- IC50 ([1]; approximate IC50): 5 ng/mL (≈ 6.95 nM)
- IC50 ([2]; approximate IC50): 5 ng/mL (≈ 6.95 nM)
- IC50 ([3]; approximate IC50): 5 ng/mL (≈ 6.95 nM)
- IC50 [4]: 5 ng/mL (≈ 6.95 nM)
- IC50 (DU-145): 5 ng/mL (≈ 6.95 nM)

Compound: CCCC(=O)O[C@H]1CS[C@@H]2c3c(OC(C)=O)c(C)c4c(c3[C@H](COC1=O)N1C2[C@H]2c3c(cc(C)c(OC)c3O)C[C@@H]([C@@H]1C#N)N2C)OCO4 (stereo partly drawn) [Compound 17c]
- IC50 ([1]; approximate IC50): 1 ng/mL (≈ 1.44 nM)
- IC50 ([2]; approximate IC50): 1 ng/mL (≈ 1.44 nM)
- IC50 ([3]; approximate IC50): 1 ng/mL (≈ 1.44 nM)
- IC50 [4]: 1 ng/mL (≈ 1.44 nM)
- IC50 (DU-145): 1 ng/mL (≈ 1.44 nM)

Compound: CCCCCCCC(=O)O[C@H]1CS[C@@H]2c3c(OC(C)=O)c(C)c4c(c3[C@H](COC1=O)N1C2[C@H]2c3c(cc(C)c(OC)c3O)C[C@@H]([C@@H]1C#N)N2C)OCO4 (stereo partly drawn) [Compound 17e]
- IC50 ([1]; approximate IC50): 1 ng/mL (≈ 1.33 nM)
- IC50 ([2]; approximate IC50): 1 ng/mL (≈ 1.33 nM)
- IC50 ([3]; approximate IC50): 1 ng/mL (≈ 1.33 nM)
- IC50 [4]: 1 ng/mL (≈ 1.33 nM)
- IC50 (DU-145): 1 ng/mL (≈ 1.33 nM)

Compound: CCCCCCCCCCCCCCCC(=O)O[C@H]1CS[C@@H]2c3c(OC(C)=O)c(C)c4c(c3[C@H](COC1=O)N1C2[C@H]2c3c(cc(C)c(OC)c3O)C[C@@H]([C@@H]1C#N)N2C)OCO4 (stereo partly drawn) [Compound 17f]
- IC50 ([1]; approximate IC50): > 1000 ng/mL
- IC50 ([2]; approximate IC50): > 1000 ng/mL
- IC50 ([3]; approximate IC50): > 1000 ng/mL
- IC50 [4]: > 1000 ng/mL
- IC50 (DU-145): > 1000 ng/mL

Compound: COc1c(C)cc2c(c1O)[C@@H]1C3[C@@H]4SC[C@H](OC(=O)/C=C/c5ccccc5)C(=O)OC[C@@H](c5c6c(c(C)c(OC(C)=O)c54)OCO6)N3[C@@H](C#N)[C@H](C2)N1C (stereo partly drawn) [Compound 17h]
- IC50 ([1]; approximate IC50): 0.1 ng/mL (≈ 0.133 nM)
- IC50 ([2]; approximate IC50): 0.1 ng/mL (≈ 0.133 nM)
- IC50 ([3]; approximate IC50): 0.1 ng/mL (≈ 0.133 nM)
- IC50 [4]: 0.1 ng/mL (≈ 0.133 nM)
- IC50 (DU-145): 0.1 ng/mL (≈ 0.133 nM)

Compound: COc1c(C)cc2c(c1O)[C@@H]1C3[C@@H]4SC[C@@H](OC(C)=O)C(=O)OC[C@@H](c5c6c(c(C)c(OC(C)=O)c54)OCO6)N3[C@@H](C#N)[C@H](C2)N1C (stereo partly drawn) [Compound 18a*]
- IC50 MEL-28 [1, 5]: 1.0 ng/mL (≈ 1.5 nM)
- IC50 A-549 [2, 5]: 1.0 ng/mL (≈ 1.5 nM)
- IC50 HT-29 [3, 5]: 1.0 ng/mL (≈ 1.5 nM)
- IC50 P-388 ([4]; listed as 18a*): 1.0 ng/mL (≈ 1.5 nM)
- IC50 DU-145 (DU-145; listed as 18a*): 1.0 ng/mL (≈ 1.5 nM)

Compound: COc1c(C)cc2c(c1O)[C@@H]1C3[C@@H]4SC[C@H](O)C(=O)OC[C@@H](c5c6c(c(C)c(OC(C)=O)c54)OCO6)N3[C@@H](O)[C@H](C2)N1C (stereo partly drawn) [Compound 19]
- IC50 ([1]; approximate IC50): 1 ng/mL (≈ 1.63 nM)
- IC50 ([2]; approximate IC50): 1 ng/mL (≈ 1.63 nM)
- IC50 ([3]; approximate IC50): 1 ng/mL (≈ 1.63 nM)
- IC50 [4]: 1 ng/mL (≈ 1.63 nM)
- IC50 (DU-145): 1 ng/mL (≈ 1.63 nM)
